Assay results from patent US10501479B2, “Benzenesulfonyl-asymmetric ureas and medical uses thereof” (HELSINN HEALTHCARE SA, priority 2016, dated 2019).

The compounds below were run against T1, GHSR-1a (HEK293/GHSR1a cell line) (Homo sapiens, UniProt Q92847) (assay: Ghrelin antagonist potency (IC50) with calcium FLIPR assay, ghrelin 10 nM). Details: ghrelin antagonist potency, read-out: IC50 (Activity).
T1 construct: expressed in transfected cells; host or cells: HEK293/GHSR1a cell line
Assay type: cell-based
Method: Evaluation of Ghrelin Agonist (EC50) and Antagonist Potency (IC50) with Calcium FLIPR Assay:
The intracellular calcium assay was carried out in a 384-well format FLIPR™ (Molecular Device) HEK293/GHSR1a cell line. Cells were seeded 24 hr prior to the experiments at an optimal density per well. Preincubation with selected calcium dye lasted for 30-60 min at room temperature or 37° C. Test compounds, dissolved in DMSO, were added at the appropriate time and incubated for 15 min followed by the addition of ghrelin with FlexStation or FLIPR. Relative fluorescence was monitored by the FLIPR™ Molecular Device. EC50 and IC50 values were estimated from dose-response data using GraphPad Prism software. To check for GHSR-1a agonism, the compound was added at t=20 sec. and the calcium response was followed for 2 minutes. To check for GHSR-1a antagonism, the compound and Ghrelin (10 nM) were added to the cells at t=20 sec. and the calcium response was measured for 2 minutes. The potency of the antagonist was calculated by its ability to reduce the ghrelin response. Dose-response curves were made for relevant antagonists.

T1 sequence (Q92847 whole entry): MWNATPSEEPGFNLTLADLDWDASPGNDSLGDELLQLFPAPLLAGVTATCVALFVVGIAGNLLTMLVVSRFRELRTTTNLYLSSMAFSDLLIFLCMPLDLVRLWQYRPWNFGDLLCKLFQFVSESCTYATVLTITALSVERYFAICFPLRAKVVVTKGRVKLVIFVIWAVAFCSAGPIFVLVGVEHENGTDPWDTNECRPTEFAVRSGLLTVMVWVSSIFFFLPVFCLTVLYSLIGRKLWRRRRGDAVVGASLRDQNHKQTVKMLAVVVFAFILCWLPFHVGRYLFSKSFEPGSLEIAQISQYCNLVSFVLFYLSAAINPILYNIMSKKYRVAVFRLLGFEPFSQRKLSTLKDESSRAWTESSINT

Going from `C[C@H](NC(=O)N(C)c1ccc(S(=O)(=O)Nc2ccc(CC(C)(C)N)cc2)cc1)c1ccc(-c2cnccn2)c(Cl)c1Cl` [H0942, (S)-N-(4-(2-amino-2-methylpropyl)phenyl)-4-(3-(1-(2,3-dichloro-4-(pyrazin-2-yl)phenyl)ethyl)-1-methylureido) benzenesulfonamide] to `Cc1ccc(CS(=O)(=O)c2ccc(NC(=O)N[C@@H](C)c3ccc(-c4cnccn4)c(Cl)c3Cl)cc2)cc1` [H0963, (S)-1-(1-(2,3-dichloro-4-(pyrazin-2-yl)phenyl)ethyl)-3-(4-((4-methylbenzyl)sulfonyl)phenyl)urea], the IC50 rises from 2.04 µM to > 30 µM. The first is the more potent here.

First: COc1ccc([C@H](C)NC(=O)Nc2ccc(S(=O)(=O)Nc3ccccc3)cc2)c(Cl)c1Cl [H0950, (S)-4-(3-(1-(2,3-dichloro-4-methoxyphenyl)ethyl)ureido)-N-phenylbenzenesulfonamide]
Second: COc1ccc([C@H](C)NC(=O)Nc2ccc(S(=O)(=O)Nc3ccc(C)cc3)cc2)c(Cl)c1Cl [H0953, (S)-4-(3-(1-(2,3-dichloro-4-methoxyphenyl)ethyl)ureido)-N-(p-tolyl)benzenesulfonamide]
The IC50 of the first is lower: 20.8 µM for the first, > 30 µM for the second. The first is the more potent here.

First: CC(=O)N(C)S(=O)(=O)c1ccc(NC(=O)N[C@@H](C)c2ccc(-c3cnccn3)c(Cl)c2Cl)cc1 [H0954, (S)-N-((4-(3-(1-(2,3-dichloro-4-(pyrazin-2-yl)phenyl)ethyl)ureido)phenyl)sulfonyl)-N-methylacetamide]
Second: COC(=O)c1cccc(CS(=O)(=O)c2ccc(NC(=O)N[C@@H](C)c3cccc(Cl)c3Cl)cc2)c1 [H1087, methyl (S)-3-(((4-(3-(1-(2,3-dichlorophenyl)ethyl)ureido)phenyl)sulfonyl)methyl)benzoate]
The IC50 of the first is higher: > 30 µM for the first, 8.18 µM for the second.

Compared with `C[C@H](NC(=O)Nc1ccc(S(=O)(=O)Nc2ccccc2)cc1)c1cccc(Cl)c1Cl` [H0965, (S)-4-(3-(1-(2,3-dichlorophenyl)ethyl)ureido)-N-phenylbenzenesulfonamide], `Cc1ccc(NS(=O)(=O)c2ccc(NC(=O)N[C@@H](C)c3cccc(Cl)c3Cl)cc2)cc1` [H0966, (S)-4-(3-(1-(2,3-dichlorophenyl)ethyl)ureido)-N-(p-tolyl)benzenesulfonamide] is lower in IC50: > 30 µM for the first, 6.58 µM for the second. The second is the more potent here.

First: COc1ccc(C(C)(C)NC(=O)Nc2ccc(S(=O)(=O)Nc3ccc(CC(C)(C)N)cc3)cc2)c(Cl)c1Cl [H0975, N-(4-(2-amino-2-methylpropyl)phenyl)-4-(3-(2-(2,3-dichloro-4-methoxyphenyl)propan-2-yl)ureido)benzenesulfonamide]
Second: COc1ccc([C@H](C)NC(=O)Nc2ccc(S(=O)(=O)Nc3ccc4[nH]ccc4c3)cc2)c(Cl)c1Cl [H0990, (S)-4-(3-(1-(2,3-dichloro-4-methoxyphenyl)ethyl)ureido)-N-(1H-indol-5-yl) benzenesulfonamide]
The IC50 of the first is 87-fold lower: 0.0095 µM for the first, 0.823 µM for the second.

First: CN(C)C(C)(C)Cc1ccc(CS(=O)(=O)c2ccc(NC(=O)NCc3cccc(Cl)c3Cl)cc2)cc1 [H0981, 1-(2,3-dichlorobenzyl)-3-(4-((4-(2-(dimethylamino)-2-methylpropyl)benzyl)sulfonyl)phenyl)urea]
Second: O=C(NCc1cccc(Cl)c1Cl)Nc1ccc(S(=O)(=O)Cc2ccc3c(c2)NCC3)cc1 [H1046, 1-(2,3-dichlorobenzyl)-3-(4-((indolin-6-ylmethyl)sulfonyl)phenyl)urea]
The IC50 of the first is 210-fold lower: 0.0095 µM for the first, 1.99 µM for the second.

Going from `C[C@H](NC(=O)Nc1ccc(S(=O)(=O)Nc2ccc3c(c2)CCCN3)cc1)c1cccc(Cl)c1Cl` [H1003, (S)-4-(3-(1-(2,3-dichlorophenyl)ethyl)ureido)-N-(1,2,3,4-tetrahydroquinolin-6-yl)benzenesulfonamide] to `COc1ccc([C@H](C)NC(=O)Nc2ccc(S(=O)(=O)Nc3ccc4c(c3)CCCN4)cc2)c(Cl)c1Cl` [H1008, (S)-4-(3-(1-(2,3-dichloro-4-methoxyphenyl)ethyl)ureido)-N-(1,2,3,4-tetrahydroquinolin-6-yl)benzenesulfonamide], the IC50 rises from 2.02 µM to 6.38 µM (3.2-fold).

Compared with `COc1ccc([C@H](C)NC(=O)Nc2ccc(S(=O)(=O)Cc3ccc4c(c3)CCN(S(C)(=O)=O)C4)cc2)c(Cl)c1Cl` [H1026, (S)-1-(1-(2,3-dichloro-4-methoxyphenyl)ethyl)-3-(4-(((2-(methylsulfonyl)-1,2,3,4-tetrahydroisoquinolin-6-yl)methyl)sulfonyl)phenyl)urea], `COc1ccc([C@H](C)NC(=O)Nc2ccc(S(=O)(=O)Nc3ccc4c(c3)CCN(S(C)(=O)=O)C4)cc2)c(Cl)c1Cl` [H1033, (S)-4-(3-(1-(2,3-dichloro-4-methoxyphenyl)ethyl)ureido)-N-(2-(methylsulfonyl)-1,2,3,4-tetrahydroisoquinolin-6-yl)benzenesulfonamide] is 4.9-fold lower in IC50: 14.9 µM for the first, 3.02 µM for the second. The second is the more potent here.

`C[C@H](NC(=O)Nc1ccc(S(=O)(=O)Cc2ccc3c(c2)NCC3)cc1)c1cccc(Cl)c1Cl` [H1045, (S)-1-(1-(2,3-dichlorophenyl)ethyl)-3-(4-((indolin-6-ylmethyl)sulfonyl)phenyl)urea] and `C[C@H](NC(=O)Nc1ccc(S(=O)(=O)Cc2cccc(O)c2)cc1)c1cccc(Cl)c1Cl` [H1084, (S)-1-(1-(2,3-dichlorophenyl)ethyl)-3-(4-((3-hydroxybenzyl)sulfonyl)phenyl)urea] are within 1.5-fold of each other in IC50: 2.74 µM for the first, 3.5 µM for the second.

First: O=C(NCc1cccc(Cl)c1Cl)Nc1ccc(S(=O)(=O)Cc2ccc3c(c2)CCN3)cc1 [H1048, 1-(2,3-dichlorobenzyl)-3-(4-((indolin-5-ylmethyl)sulfonyl)phenyl)urea]
Second: COc1cccc(CS(=O)(=O)c2ccc(NC(=O)N[C@@H](C)c3cccc(Cl)c3Cl)cc2)c1 [H1082, (S)-1-(1-(2,3-dichlorophenyl)ethyl)-3-(4-((3-methoxybenzyl)sulfonyl)phenyl)urea]
The IC50 of the first is lower: 16.8 µM for the first, > 30 µM for the second. The first is the more potent here.

Going from `C[C@H](NC(=O)Nc1ccc(S(=O)(=O)NCCC2CCNCC2)cc1)c1cccc(Cl)c1Cl` [H1052, (S)-4-(3-(1-(2,3-dichlorophenyl)ethyl)ureido)-N-(2-(piperidin-4-yl)ethyl)benzenesulfonamide] to `C[C@H](NC(=O)Nc1ccc(S(=O)(=O)CC2CC2)cc1)c1cccc(Cl)c1Cl` [H1078, (S)-1-(4-((cyclopropylmethyl)sulfonyl)phenyl)-3-(1-(2,3-dichlorophenyl)ethyl)urea], the IC50 rises from 0.467 µM to 3.58 µM (7.7-fold).

Compared with `COC(=O)c1ccc(CS(=O)(=O)c2ccc(NC(=O)N[C@@H](C)c3cccc(Cl)c3Cl)cc2)cc1` [H1058, methyl (S)-4-(((4-(3-(1-(2,3-dichlorophenyl)ethyl)ureido)phenyl)sulfonyl)methyl)benzoate], `C[C@H](NC(=O)Nc1ccc(S(=O)(=O)Cc2ccc(C(=O)O)cc2)cc1)c1cccc(Cl)c1Cl` [H1059] is higher in IC50: 20 µM for the first, > 30 µM for the second. The first is the more potent here.

`COC(=O)c1ccc(NS(=O)(=O)c2ccc(NC(=O)N[C@@H](C)c3cccc(Cl)c3Cl)cc2)cc1` [H1061, methyl (S)-4-((4-(3-(1-(2,3-dichlorophenyl)ethyl)ureido)phenyl)sulfonamido)benzoate] and `COC(=O)Cc1ccc(NS(=O)(=O)c2ccc(NC(=O)N[C@@H](C)c3cccc(Cl)c3Cl)cc2)cc1` [H1075, methyl (S)-2-(4-((4-(3-(1-(2,3-dichlorophenyl)ethyl)ureido)phenyl)sulfonamido)phenyl)acetate] are within 1.5-fold of each other in IC50: 2.87 µM for the first, 3.02 µM for the second.

First: C[C@H](NC(=O)Nc1ccc(S(=O)(=O)Cc2ccc(-c3cccnc3)cc2)cc1)c1cccc(Cl)c1Cl [H1070, (S)-1-(1-(2,3-dichlorophenyl)ethyl)-3-(4-((4-(pyridin-3-yl)benzyl)sulfonyl)phenyl)urea]
Second: C[C@H](NC(=O)Nc1ccc(S(=O)(=O)Cc2ccc(C#N)cc2)cc1)c1cccc(Cl)c1Cl [H1101, (S)-1-(4-((4-cyanobenzyl)sulfonyl)phenyl)-3-(1-(2,3-dichlorophenyl)ethyl)urea]
The IC50 of the first is lower: 5.29 µM for the first, ≥ 30 µM for the second.

Going from `C[C@H](NC(=O)Nc1ccc(S(=O)(=O)Cc2ccc(C(N)=O)cc2)cc1)c1cccc(Cl)c1Cl` [H1073, (S)-4-(((4-(3-(1-(2,3-dichlorophenyl)ethyl)ureido)phenyl)sulfonyl)methyl)benzamide] to `C[C@H](NC(=O)Nc1ccc(S(=O)(=O)Nc2ccc(N)nc2)cc1)c1cccc(Cl)c1Cl` [H1126, (S)-N-(6-aminopyridin-3-yl)-4-(3-(1-(2,3-dichlorophenyl)ethyl)ureido) benzenesulfonamide], the IC50 falls from > 30 µM to 0.183 µM.

`C[C@H](NC(=O)Nc1ccc(S(=O)(=O)C(C)(C)c2ccc3c(c2)CCNC3)cc1)c1cccc(Cl)c1Cl` [H1081, (S)-1-(1-(2,3-dichlorophenyl)ethyl)-3-(4-((2-(1,2,3,4-tetrahydroisoquinolin-6-yl)propan-2-yl)sulfonyl)phenyl)urea] and `C[C@H](NC(=O)Nc1ccc(S(=O)(=O)Nc2ccc(-c3ncc[nH]3)cc2)cc1)c1cccc(Cl)c1Cl` [H1110, (S)-N-(4-(1H-imidazol-2-yl)phenyl)-4-(3-(1-(2,3-dichlorophenyl)ethyl)ureido) benzenesulfonamide] are within 1.5-fold of each other in IC50: 1.24 µM for the first, 0.95 µM for the second.

First: C[C@H](NC(=O)Nc1ccc(S(=O)(=O)Nc2ccc(CCO)cc2)cc1)c1ccccc1Cl [H1095, (S)-4-(3-(1-(2-chlorophenyl)ethyl)ureido)-N-(4-(2-hydroxyethyl)phenyl) benzenesulfonamide]
Second: O=C(NCc1ccccc1)Nc1ccc(S(=O)(=O)Cc2ccc(CO)cc2)cc1 [H1131, 1-benzyl-3-(4-((4-(hydroxymethyl)benzyl)sulfonyl)phenyl)urea]
The IC50 of the first is lower: 1.43 µM for the first, ≥ 30 µM for the second.

`C[C@H](NC(=O)Nc1ccc(S(=O)(=O)CCN2CCOCC2)cc1)c1cccc(Cl)c1Cl` [H1096, (S)-1-(1-(2,3-dichlorophenyl)ethyl)-3-(4-((2-morpholinoethyl)sulfonyl)phenyl)urea] was tested, and the IC50 was ≥ 30 µM.
